Our source for the Ki and IC50 values is US11447505B1, “Pyrrolo[2,3-b]pyridine compounds and their use in the treatment of cancer” (priority 2017, dated 2022).

For test [1], the target named is MRCKα (Homo sapiens (Human), UniProt Q5VT25). In words: MRCKα kinase assay (IMAP fluorescence polarization). It is filed as biochemical. The source says: (§1) MRCKα, MRCKβ, ROCK1 and ROCK2 Kinase Assays
(Fluorescence polarisation rises when a labelled molecule tumbles more slowly, as on binding a larger partner.)

In test [2] the target is T1, MRCKβ (Homo sapiens (Human), UniProt Q9Y5S2). In words: MRCKβ kinase assay (IMAP fluorescence polarization). It is filed as biochemical.
Excerpt: as §1

The target in test [3] is ROCK2 (Homo sapiens (Human), UniProt O75116). The test can be described thus: ROCK2 kinase assay (IMAP fluorescence polarization). It is filed as biochemical.
Sequence of ROCK2 (O75116 whole entry, the tested form may be a part): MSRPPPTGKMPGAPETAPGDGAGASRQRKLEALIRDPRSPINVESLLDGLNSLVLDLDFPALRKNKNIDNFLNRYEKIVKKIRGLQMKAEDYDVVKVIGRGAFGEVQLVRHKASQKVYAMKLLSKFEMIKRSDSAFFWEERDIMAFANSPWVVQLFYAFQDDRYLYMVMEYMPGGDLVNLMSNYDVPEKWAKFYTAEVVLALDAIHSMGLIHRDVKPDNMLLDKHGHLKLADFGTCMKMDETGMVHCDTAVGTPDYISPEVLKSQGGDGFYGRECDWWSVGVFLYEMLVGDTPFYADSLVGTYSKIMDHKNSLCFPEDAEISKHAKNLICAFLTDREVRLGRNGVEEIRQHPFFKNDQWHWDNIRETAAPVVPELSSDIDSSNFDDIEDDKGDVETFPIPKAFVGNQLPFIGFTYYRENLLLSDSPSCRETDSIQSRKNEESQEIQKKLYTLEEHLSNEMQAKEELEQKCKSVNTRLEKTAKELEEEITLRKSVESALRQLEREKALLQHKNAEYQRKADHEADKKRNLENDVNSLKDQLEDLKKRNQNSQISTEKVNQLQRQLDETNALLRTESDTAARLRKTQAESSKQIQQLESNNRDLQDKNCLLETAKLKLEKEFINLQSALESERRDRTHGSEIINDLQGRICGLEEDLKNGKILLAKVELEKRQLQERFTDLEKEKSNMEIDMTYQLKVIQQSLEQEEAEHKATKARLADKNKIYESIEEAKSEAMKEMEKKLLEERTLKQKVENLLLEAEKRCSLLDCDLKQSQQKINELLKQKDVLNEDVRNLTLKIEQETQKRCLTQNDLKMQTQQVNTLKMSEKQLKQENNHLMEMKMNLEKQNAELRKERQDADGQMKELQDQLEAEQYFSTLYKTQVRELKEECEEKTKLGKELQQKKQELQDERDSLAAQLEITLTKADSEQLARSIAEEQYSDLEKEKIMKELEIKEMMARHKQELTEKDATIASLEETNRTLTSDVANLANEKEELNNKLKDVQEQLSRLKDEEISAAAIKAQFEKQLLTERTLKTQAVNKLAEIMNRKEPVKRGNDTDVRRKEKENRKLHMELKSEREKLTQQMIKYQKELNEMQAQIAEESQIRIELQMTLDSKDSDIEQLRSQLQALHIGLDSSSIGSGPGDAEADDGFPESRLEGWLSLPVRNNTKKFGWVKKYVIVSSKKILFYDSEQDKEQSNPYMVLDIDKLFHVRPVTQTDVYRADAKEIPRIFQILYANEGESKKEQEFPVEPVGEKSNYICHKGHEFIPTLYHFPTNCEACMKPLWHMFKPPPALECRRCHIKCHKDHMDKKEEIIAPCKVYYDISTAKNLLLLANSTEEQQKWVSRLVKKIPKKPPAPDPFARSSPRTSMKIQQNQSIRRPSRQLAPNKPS
Method: MRCKα, MRCKβ, ROCK1 and ROCK2 assays were performed using an IMAP fluorescence polarization assay format (Molecular Devices Inc.). 8-12 nM of each kinase (Life Technologies) was incubated for 60 min at room temperature with 100 nM FAM-S6-ribosomal protein derived peptide (synthesized by Alta Biosciences, University of Birmingham UK) in the presence of 1 μM ATP and 0.5 mM MgCl2 in 20 mM Tris buffer (pH 7.4) containing 0.01% Tween-20 and 1 mM DTT (MRCKα and β); or 1 μM ATP, 10 mM MgCl2 in 20 mM Tris buffer (pH 7.5) containing 0.25 mM EGTA 0.01% Triton X-100 and 1 mM DTT (ROCK1 and ROCK2). Typically, dose response analyses were performed over concentration ranges from 0.005-100 μM. Reactions were stopped by adding 2 assay volumes of 0.25% (v/v) IMAP binding reagent in 1×IMAP binding buffer A (Molecular Devices). After 30 min incubation to allow binding reagent to bind phosphorylated peptide, fluorescence polarization was measured on a Tecan Saphire^2 plate reader at excitation (470 nm) and emission (530 nm) wavelengths.
Test [4] concerns the target T1, MRCKβ. The test can be described thus: MRCKβ cellular assay (pMLC T18/S19 immunoblot, MDA-MB-231 cells with doxycycline inducible kinase domain). It is filed as cell-based. The procedure: MRCKβ, ROCK1 and ROCK2 Cellular Assays
MDA-MB-231 cells expressing doxycycline inducible ROCK1, ROCK2 or MRCKβ kinase domains were plated at 1.1×10^5 cells per well of a 12 well plate. After 24 hours, cells were treated with 1 μg/ml doxycycline for 18 hours to induce kinase domain expression and then tested over a suitable concentration range with compounds of the invention for 60 minutes. Cells were then washed with PBS and lysed with Tris-SDS lysis Buffer (50 mM Tris-HCl pH7.4, 0.5% (v/v) SDS, 1×PhosStop Inhibitors (04 906 837 001; Roche) and 1×Complete Protease Inhibitors (04 693 124 001; Roche)). Whole cell lysates were clarified by passing through QIAshredder spin columns, separated by SDS-PAGE, and quantitative immunoblotting performed using a LI-COR Odyssey IR scanner to determine pMLC (T18/S19) and α-Tubulin levels.

The target of test [5] is T2, ROCK1 (Homo sapiens (Human), UniProt Q13464). In words: biochemical.
T2 sequence (Q13464 2-1354 limits assumed): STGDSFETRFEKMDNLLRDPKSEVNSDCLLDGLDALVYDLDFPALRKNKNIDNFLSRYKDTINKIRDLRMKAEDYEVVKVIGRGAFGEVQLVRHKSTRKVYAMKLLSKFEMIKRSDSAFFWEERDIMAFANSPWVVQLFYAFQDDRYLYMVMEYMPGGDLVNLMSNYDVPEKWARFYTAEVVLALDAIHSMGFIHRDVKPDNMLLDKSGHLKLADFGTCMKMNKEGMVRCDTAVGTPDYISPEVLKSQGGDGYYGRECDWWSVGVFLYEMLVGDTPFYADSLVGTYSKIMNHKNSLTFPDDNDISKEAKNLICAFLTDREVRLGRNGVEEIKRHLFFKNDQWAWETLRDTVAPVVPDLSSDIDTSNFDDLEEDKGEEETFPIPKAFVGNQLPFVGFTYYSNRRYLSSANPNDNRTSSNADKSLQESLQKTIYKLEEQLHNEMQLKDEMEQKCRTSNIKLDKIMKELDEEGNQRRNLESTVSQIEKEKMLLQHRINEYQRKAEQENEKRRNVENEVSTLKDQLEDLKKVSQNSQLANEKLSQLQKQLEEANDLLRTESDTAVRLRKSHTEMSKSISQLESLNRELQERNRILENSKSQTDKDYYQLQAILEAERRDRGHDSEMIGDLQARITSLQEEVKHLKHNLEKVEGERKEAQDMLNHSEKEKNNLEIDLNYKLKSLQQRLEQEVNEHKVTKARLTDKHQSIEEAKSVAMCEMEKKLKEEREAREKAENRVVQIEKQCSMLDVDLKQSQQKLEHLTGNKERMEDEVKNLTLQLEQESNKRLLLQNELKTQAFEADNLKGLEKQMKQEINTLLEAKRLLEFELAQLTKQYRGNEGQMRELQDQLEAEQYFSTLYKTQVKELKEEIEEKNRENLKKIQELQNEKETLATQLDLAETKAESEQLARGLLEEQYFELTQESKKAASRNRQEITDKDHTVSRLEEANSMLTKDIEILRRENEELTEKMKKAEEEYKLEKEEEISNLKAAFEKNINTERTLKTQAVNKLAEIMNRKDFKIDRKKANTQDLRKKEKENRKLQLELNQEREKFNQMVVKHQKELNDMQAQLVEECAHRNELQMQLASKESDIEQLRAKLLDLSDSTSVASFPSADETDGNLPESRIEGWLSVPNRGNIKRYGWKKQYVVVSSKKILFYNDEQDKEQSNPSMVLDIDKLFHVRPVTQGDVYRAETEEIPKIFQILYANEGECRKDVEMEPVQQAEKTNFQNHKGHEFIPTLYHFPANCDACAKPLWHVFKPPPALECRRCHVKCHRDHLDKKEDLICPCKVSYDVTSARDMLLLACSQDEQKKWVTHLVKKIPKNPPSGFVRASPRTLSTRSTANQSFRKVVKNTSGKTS
In test [6] the target is T2, ROCK1. The conditions noted are these: read-out: ROCK1 Average Ki; 1 μM ATP.
[7] abbreviates: 1 μM ATP, read-out: MRCK-a Average Ki.
[8] abbreviates: 1 μM ATP, read-out: MRCK-B Average Ki.
Where [9] appears, read: 1 μM ATP, read-out: ROCK2 Average Ki.
Where [10] appears, read: MDA-MB-231 cells, doxycycline inducible kinase domain, 60 minutes, pMLC (T18/S19), read-out: Cellular assay - MRCK-b inhibition MEAN.

Where two headings read alike, the source gives them in different places.

The term Ki denotes the equilibrium dissociation constant of an inhibitor or competing ligand from its target.

Sequence of MRCKα (Q5VT25 whole entry): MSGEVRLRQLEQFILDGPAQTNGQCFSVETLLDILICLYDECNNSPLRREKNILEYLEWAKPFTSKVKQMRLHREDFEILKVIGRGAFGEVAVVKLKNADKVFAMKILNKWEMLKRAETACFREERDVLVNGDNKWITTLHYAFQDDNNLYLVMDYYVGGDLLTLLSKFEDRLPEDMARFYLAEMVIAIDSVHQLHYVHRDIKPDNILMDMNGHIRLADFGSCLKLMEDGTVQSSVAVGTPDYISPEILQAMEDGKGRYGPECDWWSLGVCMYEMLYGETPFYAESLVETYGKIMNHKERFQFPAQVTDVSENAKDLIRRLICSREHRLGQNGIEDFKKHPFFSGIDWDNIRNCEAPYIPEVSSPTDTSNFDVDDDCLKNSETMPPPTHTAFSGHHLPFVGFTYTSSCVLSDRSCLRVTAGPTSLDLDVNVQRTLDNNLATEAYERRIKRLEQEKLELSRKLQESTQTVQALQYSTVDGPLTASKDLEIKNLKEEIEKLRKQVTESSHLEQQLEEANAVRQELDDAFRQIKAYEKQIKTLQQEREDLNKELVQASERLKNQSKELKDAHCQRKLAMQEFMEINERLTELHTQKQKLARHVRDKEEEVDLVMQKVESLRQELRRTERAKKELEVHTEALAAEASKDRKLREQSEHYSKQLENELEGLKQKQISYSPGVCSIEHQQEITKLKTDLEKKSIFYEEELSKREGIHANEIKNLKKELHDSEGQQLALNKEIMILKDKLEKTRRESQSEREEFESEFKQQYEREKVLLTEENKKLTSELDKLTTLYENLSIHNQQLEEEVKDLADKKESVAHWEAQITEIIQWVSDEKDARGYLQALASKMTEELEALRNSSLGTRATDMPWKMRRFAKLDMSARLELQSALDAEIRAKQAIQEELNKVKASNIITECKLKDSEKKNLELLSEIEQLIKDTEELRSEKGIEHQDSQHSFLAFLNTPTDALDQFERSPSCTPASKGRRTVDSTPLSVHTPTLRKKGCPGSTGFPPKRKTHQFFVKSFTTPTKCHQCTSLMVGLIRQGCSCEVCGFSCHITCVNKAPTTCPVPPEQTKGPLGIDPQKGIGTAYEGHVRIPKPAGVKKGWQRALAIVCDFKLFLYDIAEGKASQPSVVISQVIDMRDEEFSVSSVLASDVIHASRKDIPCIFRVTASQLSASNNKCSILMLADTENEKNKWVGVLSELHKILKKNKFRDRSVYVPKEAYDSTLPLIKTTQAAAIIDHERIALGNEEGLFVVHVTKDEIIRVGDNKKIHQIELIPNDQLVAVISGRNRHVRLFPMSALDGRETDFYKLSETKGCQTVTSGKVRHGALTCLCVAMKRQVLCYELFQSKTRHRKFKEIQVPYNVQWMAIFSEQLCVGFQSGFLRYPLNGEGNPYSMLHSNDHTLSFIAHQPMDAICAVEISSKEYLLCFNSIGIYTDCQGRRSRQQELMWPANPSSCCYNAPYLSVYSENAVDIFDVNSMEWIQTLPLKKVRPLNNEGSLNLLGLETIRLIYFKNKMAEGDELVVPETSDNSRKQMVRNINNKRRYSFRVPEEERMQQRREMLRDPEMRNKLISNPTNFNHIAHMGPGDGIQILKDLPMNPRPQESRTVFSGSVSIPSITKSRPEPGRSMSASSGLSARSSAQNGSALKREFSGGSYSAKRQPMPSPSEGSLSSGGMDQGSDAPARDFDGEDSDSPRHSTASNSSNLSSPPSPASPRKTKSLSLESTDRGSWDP

As for `c1cc(N2CCCC3(CCCCN3)C2)c2c(-c3cnsc3)c[nH]c2n1` (stereo not drawn) [Example E114, 4-[4-(1,8-diazaspiro[5.5]undecan-8-yl)-1H-pyrrolo[2,3-b]pyridin-3-yl]isothiazole], the Ki was 0.0683 nM in test [1] (setting [7]), 0.0813 nM in test [2] (setting [8]), 6.42 nM in test [3] (setting [9]) and 18.3 nM in test [5]. Also, the IC50 in test [4] (setting [10]) was 40.5 nM.
Turning to `Fc1cccnc1-c1c[nH]c2nccc(N3CCCC4(CCCCN4)C3)c12` (stereo not drawn) [Example E169, 8-[3-(3-fluoro-2-pyridyl)-1H-pyrrolo[2,3-b]pyridin-4-yl]-1,8-diazaspiro[5.5]undecane], the Ki in test [1] (setting [7]) was determined as 0.189 nM; in test [2] (setting [8]), 0.106 nM; in test [3] (setting [9]) it was 261 nM; in test [5] it was 861 nM. Further, the IC50 in test [4] (setting [10]) came to 732 nM.
For `c1cc(-c2c[nH]c3nccc(N4CC[C@@]5(CCCCN5)C4)c23)ncn1` [Example E128, (5S)-2-(3-pyrimidin-4-yl-1H-pyrrolo[2,3-b]pyridin-4-yl)-2,6-diazaspiro[4.5]decane], the Ki is 0.0317 nM in test [1] (setting [7]), 0.0652 nM in test [2] (setting [8]), 4.41 nM in test [3] (setting [9]) and 10.6 nM in test [6]. Moreover, the IC50 in test [4] (setting [10]) was determined as 420 nM.
For `CN[C@H]1CCCN(c2ccnc3[nH]cc(-c4ccncn4)c23)C1` [Example E66, (3S)-N-methyl-1-(3-pyrimidin-4-yl-1H-pyrrolo[2,3-b]pyridin-4-yl)piperidin-3-amine], the Ki stood at 0.238 nM in test [1] (setting [7]), 0.17 nM in test [2] (setting [8]), 99.2 nM in test [3] (setting [9]) and 241 nM in test [5]. For the same compound, the IC50 in test [4] (setting [10]) stood at 1780 nM.
Take `CN[C@H]1CCCN(c2ccnc3[nH]cc(-c4nccs4)c23)C1` [Example E47, (3S)-N-methyl-1-(3-thiazol-2-yl-1H-pyrrolo[2,3-b]pyridin-4-yl)piperidin-3-amine]: the inhibition constant (Ki) in test [1] (setting [7]) is 0.158 nM; in test [2] (setting [8]) it was 0.304 nM; in test [3] (setting [9]), 103 nM; in test [5], 595 nM. Moreover, the IC50 in test [4] (setting [10]) amounted to 1530 nM.
Regarding `c1cc(N2CCC3(CCCCN3)C2)c2c(-c3ncsn3)c[nH]c2n1` (stereo not drawn) [Example E129, 3-[4-(2,6-diazaspiro[4.5]decan-2-yl)-1H-pyrrolo[2,3-b]pyridin-3-yl]-1,2,4-thiadiazole], the Ki in test [1] was found to be 0.0518 nM; in test [2], 0.206 nM; in test [3], 23.6 nM; in test [5], 108 nM. For the same compound, the IC50 in test [4] came to 729 nM.
Regarding `Fc1ccc(-c2c[nH]c3nccc(N4CCCC5(CCCCN5)C4)c23)nc1` (stereo not drawn) [Example E170, 8-[3-(5-fluoro-2-pyridyl)-1H-pyrrolo[2,3-b]pyridin-4-yl]-1,8-diazaspiro[5.5]undecane], the Ki in test [1] (setting [7]) was 0.17 nM; in test [2] (setting [8]), 0.1 nM; in test [3] (setting [9]), 165 nM; in test [5], 564 nM. Further, the IC50 in test [4] (setting [10]) came to 612 nM.
The like results for `Fc1cncc(-c2c[nH]c3nccc(N4CCCC5(CCCCN5)C4)c23)c1` (stereo not drawn) [Example E171, 8-[3-(5-fluoro-3-pyridyl)-1H-pyrrolo[2,3-b]pyridin-4-yl]-1,8-diazaspiro[5.5]undecane] were, in that order, 0.0639 nM, 0.0648 nM, 85.2 nM, 207 nM and 233 nM.
The like results for `c1cc(-c2c[nH]c3nccc(N4CCC[C@H](NC5CC5)C4)c23)cnn1` [Example E46, (3S)-N-cyclopropyl-1-(3-pyridazin-4-yl-1H-pyrrolo[2,3-b]pyridin-4-yl)piperidin-3-amine] were, in that order, 0.322 nM, 0.238 nM, 233 nM, 11.9 nM and 1540 nM.
On to `c1csc(-c2c[nH]c3nccc(N4CCC5(CCCCN5)C4)c23)n1` (stereo not drawn) [Example E155, 2-[4-(2,6-diazaspiro[4.5]decan-2-yl)-1H-pyrrolo[2,3-b]pyridin-3-yl]thiazole], for which the figures for the inhibition constant (Ki) in test [2] and in test [5] were 0.0822 nM and 79.5 nM, respectively. Besides, in test [4], the IC50 was determined as 218 nM.
